Among the data in patent US20260053932A1, “COMPOUNDS AND METHODS FOR THE TARGETED DEGRADATION OF ANDROGEN RECEPTOR AND ASSOCIATED METHODS OF USE” (Arvinas Operations, Inc., priority 2020, published 2026) are DC50 values, retold here.

For the first assay, the system named is androgen receptor (AR) in LNCaP and/or VCaP cells. In words: Androgen Receptor ELISA assay (AR degradation). The assay is classed as cell-based. The following applies: LNCaP and/or VCaP cells; 5 hours incubation; media with R1881; read-out: DC50 Code* (degradation of AR ELISA). In short, it runs like this: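 VCaP cells grown ≥3 days, then treated 5 h with compound in media containing 1 nM R1881 (10× stock). Cells lysed and AR quantified by sandwich ELISA (mouse AR detection Ab, HRP anti-mouse, TMB). DC50 and Dmax derived from AR degradation.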
A general note: ELISA stands for enzyme-linked immunosorbent assay.
For the molecule `N#Cc1ccc(O[C@H]2CC[C@H](NC(=O)c3cnc(N4CCC(CN(CC5COC5)[C@H]5C[C@H](Oc6ccc7c(c6)C(=O)N(C6CCC(=O)NC6=O)C7)C5)CC4)cn3)CC2)cc1Cl` (stereo partly drawn) [Compound 48, N-((1r,4r)-4-(3-chloro-4-cyanophenoxy)cyclohexyl)-5-(4-((((1r,3r)-3-((2-(2,6-dioxopiperidin-3-yl)-3-oxoisoindolin-5-yl)oxy)cyclobutyl)(oxetan-3-ylmethyl)amino)methyl)piperidin-1-yl)pyrazine-2-carboxamide], the DC50 is below 1 nM. Still for that read-out and setting: next, `CC(C)N(CC1CCN(c2cnc(C(=O)N[C@H]3CC[C@H](Oc4ccc(C#N)c(Cl)c4)CC3)cn2)CC1)[C@H]1C[C@H](Oc2ccc3c(c2)C(=O)N(C2CCC(=O)NC2=O)C3)C1` (stereo partly drawn) [Compound 41, N-((1r,4r)-4-(3-chloro-4-cyanophenoxy)cyclohexyl)-5-(4-((((1r,3r)-3-((2-(2,6-dioxopiperidin-3-yl)-3-oxoisoindolin-5-yl)oxy)cyclobutyl) (isopropyl)amino)methyl)piperidin-1-yl)pyrazine-2-carboxamide]: below 1 nM.

As to `COc1cc(O[C@H]2C[C@H](N(CC3CCN(c4ncc(C(=O)NC5CC6(C5)CN(Cc5cc(C)c(C#N)c(C)c5)C6)cn4)CC3)C(C)C)C2)cc2c1C(=O)N(C1CCC(=O)NC1=O)C2=O` (mixture of isomers) [Compound 12, rac-N-(2-(4-cyano-3,5-dimethylbenzyl)-2-azaspiro[3.3]heptan-6-yl)-2-(4-((((1r,3r)-3-((2-(2,6-dioxopiperidin-3-yl)-7-methoxy-1,3-dioxoisoindolin-5-yl)oxy)cyclobutyl) (isopropyl)amino)methyl)piperidin-1-yl)pyrimidine-5-carboxamide], the DC50 is above 100 nM. As for `COc1cc(O[C@H]2CC[C@H](NC(=O)c3cnc(N4CC(CN(C(C)C)[C@H]5C[C@H](Oc6ccc7c(c6)C(=O)N(C6CCC(=O)NC6=O)C7=O)C5)C4)cn3)CC2)ccc1C#N` (stereo partly drawn) [Compound 20, N-((1r,4r)-4-(4-cyano-3-methoxyphenoxy)cyclohexyl)-5-(3-((((1r,3r)-3-((2-(2,6-dioxopiperidin-3-yl)-1,3-dioxoisoindolin-5-yl)oxy)cyclobutyl) (isopropyl)amino)methyl)azetidin-1-yl)pyrazine-2-carboxamide], the DC50 is below 1 nM.

Regarding `CC(C)N(CC1CCN(c2cnc(C(=O)N[C@H]3CC[C@H](Oc4ccc(C#N)c(Cl)c4)CC3)cn2)CC1)[C@H]1C[C@H](Oc2ccc3c(c2)C2(CC2)N(C2CCC(=O)NC2=O)C3=O)C1` (stereo partly drawn) [Compound 65, N-((1r,4r)-4-(3-chloro-4-cyanophenoxy)cyclohexyl)-5-(4-((((1r,3r)-3-((2′-(2,6-dioxopiperidin-3-yl)-3′-oxospiro[cyclopropane-1,1′-isoindolin]-6′-yl)oxy)cyclobutyl) (isopropyl)amino)methyl)piperidin-1-yl)pyrazine-2-carboxamide], the DC50 is below 1 nM.

Staying with this assay, now noted: degradation of AR ELISA in LNCaP and/or VCaP cells; Table 2C; read-out: DC50 Code*.
Regarding `CC(C)N(CC1CCN(c2cnc(C(=O)N[C@H]3C(C)(C)[C@H](Oc4ccc(C#N)c(Cl)c4)C3(C)C)cn2)CC1)[C@H]1C[C@H](Oc2ccc3c(c2)C(=O)N(C2CCC(=O)NC2=O)C32CC2)C1` (stereo partly drawn) [compound 141, N-((1r,3r)-3-(3-chloro-4-cyanophenoxy)-2,2,4,4-tetramethylcyclobutyl)-5-(4-((((1r,3r)-3-((2′-(2,6-dioxopiperidin-3-yl)-3′-oxospiro[cyclopropane-1,1′-isoindolin]-5′-yl)oxy)cyclobutyl) (isopropyl)amino)methyl)piperidin-1-yl)pyrazine-2-carboxamide], the DC50 is above 100 nM. The same measure, in the same setting: next, `CC1(C)[C@H](NC(=O)c2ccc(N3CCC(CN4CC5CN(c6ccc7c(c6)C(=O)N(C6CCC(=O)NC6=O)C7=O)CC5C4)CC3)cc2)C(C)(C)[C@H]1Oc1ccc(C#N)c(Cl)c1` (stereo partly drawn) [compound 114, N-((1r,3r)-3-(3-chloro-4-cyanophenoxy)-2,2,4,4-tetramethylcyclobutyl)-4-(4-((5-(2-(2,6-dioxopiperidin-3-yl)-1,3-dioxoisoindolin-5-yl)hexahydropyrrolo[3,4-c]pyrrol-2(1H)-yl)methyl)piperidin-1-yl)benzamide]: below 1 nM; `COc1cc(O[C@H]2C(C)(C)[C@H](NC(=O)c3c(C)nc(N4CCC(CN(C(C)C)[C@H]5C[C@H](Oc6ccc7c(c6)C(=O)N(C6CCC(=O)NC6=O)C7=O)C5)CC4)nc3C)C2(C)C)ccc1C#N` (mixture of isomers) [compound 211, rac-N-((1r,3r)-3-(4-cyano-3-methoxyphenoxy)-2,2,4,4-tetramethylcyclobutyl)-2-(4-((((1r,3r)-3-((2-(2,6-dioxopiperidin-3-yl)-1,3-dioxoisoindolin-5-yl)oxy)cyclobutyl) (isopropyl)amino)methyl)piperidin-1-yl)-4,6-dimethylpyrimidine-5-carboxamide]: below 1 nM. Regarding `Cc1cc(O[C@H]2C(C)(C)[C@H](NC(=O)c3cnc(N4CCC(CN(CCN5CCOCC5)[C@H]5C[C@H](Oc6ccc7c(c6)C(=O)N(C6CCC(=O)NC6=O)C7=O)C5)CC4)nc3)C2(C)C)cc(C)c1C#N` (stereo partly drawn) [compound 90, N-((1r,3r)-3-(4-cyano-3,5-dimethylphenoxy)-2,2,4,4-tetramethylcyclobutyl)-2-(4-((((1r,3r)-3-((2-(2,6-dioxopiperidin-3-yl)-1,3-dioxoisoindolin-5-yl)oxy)cyclobutyl)(2-morpholinoethyl)amino)methyl)piperidin-1-yl)pyrimidine-5-carboxamide], the DC50 is below 1 nM.

With `CC(C)N(CC1CCN(c2ncc(C(=O)N[C@H]3C(C)(C)[C@H](Oc4ccc(C#N)c(Cl)c4)C3(C)C)cn2)CC1)[C@H]1CC[C@H](Oc2ccc3c(c2)C(=O)N(C2CCC(=O)NC2=O)C3=O)CC1` (stereo partly drawn) [compound 84, N-((1r,3r)-3-(3-chloro-4-cyanophenoxy)-2,2,4,4-tetramethylcyclobutyl)-2-(4-((((1r,4r)-4-((2-(2,6-dioxopiperidin-3-yl)-1,3-dioxoisoindolin-5-yl)oxy)cyclohexyl) (isopropyl)amino)methyl)piperidin-1-yl)pyrimidine-5-carboxamide], the DC50 is below 1 nM.

Still in this assay, the particulars now being: degradation of AR ELISA in LNCaP and/or VCaP cells; read-out: DC50 Code*.
In the case of `CC1(C)[C@H](NC(=O)c2ccc(N3CCC(CO[C@H]4C[C@H](Oc5ccc6c(c5)C(=O)N(C5CCC(=O)NC5=O)C6=O)C4)CC3)cc2)C(C)(C)[C@H]1Oc1ccc(C#N)c(Cl)c1` (stereo partly drawn) [compound 245, N-((1r,3r)-3-(3-chloro-4-cyanophenoxy)-2,2,4,4-tetramethylcyclobutyl)-4-(4-(((1r,3r)-3-((2-(2,6-dioxopiperidin-3-yl)-1,3-dioxoisoindolin-5-yl)oxy)cyclobutoxy)methyl)piperidin-1-yl)benzamide], the DC50 fell in the range of 1 to 10 nM. Regarding `COc1cc(O[C@H]2C[C@H](N(CC(F)F)CC3CCN(c4cnc(C(=O)N[C@H]5C(C)(C)[C@H](Oc6cc(C)c(C#N)c(C)c6)C5(C)C)cn4)CC3)C2)cc2c1C(=O)N(C1CCC(=O)NC1=O)C2=O` (stereo partly drawn) [compound 246, N-((1r,3r)-3-(4-cyano-3,5-dimethylphenoxy)-2,2,4,4-tetramethylcyclobutyl)-5-(4-(((2,2-difluoroethyl)((1r,3r)-3-((2-(2,6-dioxopiperidin-3-yl)-7-methoxy-1,3-dioxoisoindolin-5-yl)oxy)cyclobutyl)amino)methyl)piperidin-1-yl)pyrazine-2-carboxamide], the half-maximal degradation concentration (DC50) lay within 10 to 100 nM.

Broadly, the DC50 is the concentration giving 50% degradation.
